Like-named read-outs stand apart in the source and are kept apart here.
Tests used:
[1] = test system: tumor necrosis factor (α) (TNF-α); experiment: Cytokine induction in human cells: TNF-α secreted by PBMC (ORIGEN M-Series immunoassay); type: cell-based; parameters: key to Maximal Response (pg/mL) TNF: *: Below experimental background level; settings: median if more than one experiment; for minimal effective concentration: lowest tested concentration inducing response over 40 pg/mL, read-out: Minimum Effective Concentration (μM) TNF; for Maximal Response (pg/mL) TNF: background-subtracted, reference-adjusted
Source text: (§1) An in vitro human blood cell system is used to assess cytokine induction. Activity is based on the measurement of interferon (α) and tumor necrosis factor (α) (IFN-α and TNF-α, respectively) secreted into culture media as described by Testerman et. al. in “Cytokine Induction by the Immunomodulators Imiquimod and S-27609”, Journal of Leukocyte Biology, 58, 365-372 (September, 1995).
(§2) Whole blood from healthy human donors is collected by venipuncture into vacutainer tubes or syringes containing EDTA. Peripheral blood mononuclear cells (PBMC) are separated from whole blood by density gradient centrifugation using HISTOPAQUE-1077 (Sigma, St. Louis, Mo.) or Ficoll-Paque Plus (Amersham Biosciences Piscataway, N.J.). Blood is diluted 1:1 with Dulbecco's Phosphate Buffered Saline (DPBS) or Hank's Balanced Salts Solution (HBSS). Alternately, whole blood is placed in Accuspin (Sigma) or LeucoSep (Greiner Bio-One, Inc., Longwood, Fla.) centrifuge frit tubes containing density gradient medium. The PBMC layer is collected and washed twice with DPBS or HBSS and re-suspended at 4×10^6 cells/mL in RPMI complete. The PBMC suspension is added to 96 well flat bottom sterile tissue culture plates containing an equal volume of RPMI complete media containing test compound.
(§3) The compounds are solubilized in dimethyl sulfoxide (DMSO). The DMSO concentration should not exceed a final concentration of 1% for addition to the culture wells. The compounds are generally tested at concentrations ranging from 30-0.014 μM. Controls include cell samples with media only, cell samples with DMSO only (no compound), and cell samples with reference compound.
(§4) The solution of test compound is added at 60 μM to the first well containing RPMI complete and serial 3 fold dilutions are made in the wells. The PBMC suspension is then added to the wells in an equal volume, bringing the test compound concentrations to the desired range (usually 30-0.014 μM). The final concentration of PBMC suspension is 2×10^6 cells/mL. The plates are covered with sterile plastic lids, mixed gently and then incubated for 18 to 24 hours at 37° C. in a 5% carbon dioxide atmosphere.
(§5) Following incubation the plates are centrifuged for 10 minutes at 1000 rpm (approximately 200×g) at 4° C. The cell-free culture supernatant is removed and transferred to sterile polypropylene tubes. Samples are maintained at −30 to −70° C. until analysis. The samples are analyzed for IFN-α by ELISA and for TNF-α by IGEN/BioVeris Assay.
The TNF-α concentration is determined by ORIGEN M-Series Immunoassay and read on an IGEN M-8 analyzer from BioVeris Corporation, formerly known as IGEN International, Gaithersburg, Md. The immunoassay uses a human TNF-α capture and detection antibody pair (Catalog Numbers AHC3419 and AHC3712) from Biosource International, Camarillo, Calif. Results are expressed in pg/mL.
(§6) In total, the data output of the assay consists of concentration values of TNF-α and IFN-α(y-axis) as a function of compound concentration (x-axis).
Analysis of the data has two steps. First, the greater of the mean DMSO (DMSO control wells) or the experimental background (usually 20 pg/mL for IFN-α and 40 pg/mL for TNF-α) is subtracted from each reading. If any negative values result from background subtraction, the reading is reported as “*”, and is noted as not reliably detectable. In subsequent calculations and statistics, “*”, is treated as a zero. Second, all background subtracted values are multiplied by a single adjustment ratio to decrease experiment to experiment variability. The adjustment ratio is the area of the reference compound in the new experiment divided by the expected area of the reference compound based on the past 61 experiments (unadjusted readings). […]

interferon (α) (IFN-α) = experiment: Cytokine induction in human cells: IFN-α secreted by PBMC (ELISA); type: cell-based; parameters: key to Maximal Response (pg/mL) IFN: *: Below experimental background level; settings: median if more than one experiment; for minimal effective concentration: lowest tested concentration inducing response over 20 pg/mL, read-out: Minimum Effective Concentration (μM) IFN; for Maximal Response (pg/mL) IFN: background-subtracted, reference-adjusted
Source text: as §1, §2, §3, §4, §5
IFN-α concentration is determined with a human multi-subtype colorimetric sandwich ELISA (Catalog Number 41105) from PBL Biomedical Laboratories, Piscataway, N.J. Results are expressed in pg/mL.
as §6
Analysis of the data has two steps. First, the greater of the mean DMSO (DMSO control wells) or the experimental background (usually 20 pg/mL for IFN-α and 40 pg/mL for TNF-α) is subtracted from each reading. If any negative values result from background subtraction, the reading is reported as “*”, and is noted as not reliably detectable. In subsequent calculations and statistics, “*”, is treated as a zero. Second, all background subtracted values are multiplied by a single adjustment ratio to decrease experiment to experiment variability. The adjustment ratio is the area of the reference compound in the new experiment divided by the expected area of the reference compound based on the past 61 experiments (unadjusted readings). […] The reference compound used is 2-[4-amino-2-ethoxymethyl-6,7,8,9-tetrahydro-α,α-dimethyl-1H-imidazo[4,5-c]quinolin-1-yl]ethanol hydrate (U.S. Pat. No. 5,352,784; Example 91) and the expected area is the sum of the median dose values from the past 61 experiments.
The minimum effective concentration is calculated based on the background-subtracted, reference-adjusted results for a given experiment and compound. […]

Row | SMILES | minimal effective concentration ([1]; 18 to 24 hours) [µM] | Maximal Response (pg/mL) TNF ([1]; tested 30-0.014 μM) | minimal effective concentration (interferon (α) (IFN-α); 18 to 24 hours) [µM] | Maximal Response (pg/mL) IFN (interferon (α) (IFN-α); tested 30-0.014 μM) | minimal effective concentration ([1]; Table 3, 18 to 24 hours) [µM] | Maximal Response (pg/mL) TNF ([1]; Table 3, tested 30-0.014 μM) | minimal effective concentration (interferon (α) (IFN-α); Table 3, 18 to 24 hours) [µM] | Maximal Response (pg/mL) IFN (interferon (α) (IFN-α); Table 3, tested 30-0.014 μM) [pg/mL]
1 | CC(C)Cn1c(CCO)nc2c(N)nc3cc(-c4cncc(CO)c4)ccc3c21 [Example 4] | 10 | 349 pg/mL | 0.12 | 1891 pg/mL |  |  |  | 
2 | CC(C)(O)Cn1c(CO)nc2c(N)nc3cc(-c4cccnc4)ccc3c21 [Example 8] | 10 | 51 pg/mL | 0.37 | 2886 pg/mL | >30 | * (Below experimental background level of 40/pg mL) | 1.11 | 2251
3 | Cc1cccc(-c2ccc3c(c2)nc(N)c2nc(CO)n(CC(C)(C)O)c23)c1 [Example 9] | >30 | * | 30 | 87 pg/mL |  |  |  | 
4 | Cc1ccc(-c2ccc3c(c2)nc(N)c2nc(CO)n(CC(C)(C)O)c23)cc1 [Example 10] | 0.37 | 7423 pg/mL | 0.37 | 1681 pg/mL |  |  |  | 
5 | CC(C)(O)Cn1c(CO)nc2c(N)nc3cc(-c4cccc(O)c4)ccc3c21 [Example 13] | 10 | 352 pg/mL | 0.37 | 12641 pg/mL |  |  |  | 
6 | CC(C)(O)Cn1c(CO)nc2c(N)nc3cc(-c4cncc(CO)c4)ccc3c21 [Example 33] | > 30 | * | 0.37 |  |  |  |  | 
7 | CC(C)C(=O)N1CCC(Cn2c(CO)nc3c(N)nc4cc(-c5cccnc5)ccc4c32)CC1 [Example 35] | > 30 | * | 1.11 |  |  |  |  | 
8 | CCCNC(=O)NCCCCn1c(CO)nc2c(N)nc3cc(-c4cccnc4)ccc3c21 [Example 39] | 30 |  | 0.37 |  |  |  |  | 
9 | Nc1nc2cc(-c3cccnc3)ccc2c2c1nc(CO)n2CCCCNC(=O)NC1CCCC1 [Example 41] | 10 |  | 0.04 |  |  |  |  | 
10 | CC(C)C(=O)NCCCCn1c(CO)nc2c(N)nc3cc(-c4cccnc4)ccc3c21 [Example 43] | 10 |  | 0.37 |  |  |  |  | 
11 | CC(C)C(=O)N1CCC(Cn2c(CO)nc3c(N)nc4cc(-c5cncc(CO)c5)ccc4c32)CC1 [Example 45] | > 30 | * | > 30 | * |  |  |  | 
12 | Nc1nc2cc(-c3cncc(CO)c3)ccc2c2c1nc(CO)n2CC1CCCCC1 [Example 49] | > 30 | * | 3.33 |  |  |  |  | 
13 | Nc1nc2cc(-c3cccc(C(=O)N4CCOCC4)c3)ccc2c2c1nc(CO)n2CC1CCCCC1 [Example 50] | > 30 | * | 1.11 |  |  |  |  | 

— patent US8158794B2, “Hydroxyalkyl substituted imidazoquinoline compounds and methods” (3M Innovative Properties Company, priority 2005, dated 2012)
